From article PMC10313671, “Accelerating the prediction and discovery of peptide hydrogels with human-in-the-loop” (Nature Communications, 2023)
Where a SMILES comes first, the peptide text is derived from it.

Experiments:
[1] = Transmission electron microscope (negative staining) of peptide assemblies; details: for Morphology: TEM, negative staining with uranyl acetate, 120 kV; for morphology by TEM (in words): aqueous solution or hydrogel, negative staining
Protocol: We used the negative staining technique to observe the morphologies formed by peptides. A micropipette was used to load 10 μL of sample solution to a carbon-coated copper grid, and we used a piece of filter paper to remove the excess solution. After rinsing the grid with the deionized water, we used uranyl acetate to stain the sample for 1 minute and then rinsed the grid with deionized water again.

[2] = Optical images of aqueous peptide solutions at four concentrations; type: physicochemical; details: pH = 7.5
Protocol: [7. What are the pH values of the hydrogels formed? […]
the captions of proper figures.]
We thank the reviewer for the comment. […]
the information of pH values of tetrapeptide hydrogels/solutions in the captions of Fig. 3a and d. […]
Insets: […]
optical images of corresponding solution/suspension (pH=7.5). […]
[8. Is it surprising that both QQQQ and EEEE form suspension at 120 mM? Any explanation from either ML perspective or thermodynamic prospective?]
We thank the reviewer for the comment. From the ML or simulation perspective, both QQQQ and […]
hydrophilicity and lack of sufficient directional hydrogen bonds captured in simulation and prediction. However, the formation of suspension in real experiments indicate the formation of aggregates, and we attribute this to the thermodynamic factor of concentration.
Actually, we also found this phenomenon on RRRR (also contains four charged amino acids), and […]
We compared the optical images of QQQQ and EEEE at four concentrations (30, 60, 90, and 120 […]
transparency decreased (60, 90, and 120 mM) due to the formation of aggregates. As for EEEE, at […]
suspension. We tend to think that as the concentration of charged tetrapeptides increases, the hydrogen bond between peptide molecules and water is strengthened, resulting in the formation of […]
aggregates at high concentrations. […]
description in Lines 214-216 of this main text.
Fig. R1 The optical images of QQQQ and EEEE aqueous solutions at four concentrations (30, 60, […]
with different sizes in an aqueous solution, qualitatively consistent with the morphologies obtained in MD simulations except for RRRR (Fig. 3d, right column), showing different levels of aggregation. Taking the TEM result of RRRR together, we attributed this to the thermodynamic factor of concentration. Finally, we presented a summary of the assembled morphologies of all […]
tetrapeptides tended to form fibers, sheets, or hybrid morphology (70%) in an aqueous solution. […]
[…]
(1 picture or pasted object on this page, not shown here)

[3] = Peptide hydrogel formation, vial-inverting method; type: physicochemical; design: key to EXP / GELATION: 0: no hydrogel; 1: hydrogel; details: for State: ultrasonication, standing 48 h; for State / GELATION / hydrogel formation (in words): vial-inverting method; for Concentration: concentration at which the state was recorded: lowest of 30, 60, 90, 120 mM that gave a gel, 120 mM for non-gelating peptides; for GELATION: 1 = hydrogel, 0 = no hydrogel; for hydrogel formation (in words): representative hydrogels pH between 7.0 to 7.5
How it was run: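 Tetrapeptides dissolved in ultrapure water at 30 mM, pH brought to 6.5–8.5 with 1 N NaOH stepwise with brief ultrasonication, then left 48 h. Gel defined as self-supporting and non-flowing on vial inversion; non-gelling peptides retested at 60, 90 and 120 mM.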

C57BL/6 mice = type: in vivo, C57BL/6 J mice; details: serum day 21
[4] = 120 mM peptide (highest tested) in ultrapure water, pH 6.5-8.5 (1 N NaOH), precipitate, sol, suspension = no gel
[5] = 30 mM peptide in ultrapure water, pH adjusted to 6.5-8.5 with 1 N NaOH, concentration raised 30/60/90/120 mM until gelation
[6] = 60 mM peptide in ultrapure water, pH 6.5-8.5 (1 N NaOH), no gel at 30 mM

Compound | Morphology ([1]; line of the table gives 120 mM) | State [3, 4] | Concentration [3] [µM] | GELATION ([3]; peptide concentration 120 mM) | hydrogel formation (in words) [3] | further results
N[C@@H](CCC(=O)O)C(=O)N[C@@H](CCC(=O)O)C(=O)N[C@@H](CCC(=O)O)C(=O)N[C@@H](CCC(=O)O)C(=O)O [EEEE] (H-EEEE-OH) | sheet | suspension | 120000 | 0 | – | appearance of aqueous solution (optical image) ([2]; 30 mM): uniform and clear solutions; appearance of aqueous solution (optical image) ([2]; 60 mM): uniform and clear solutions; appearance of aqueous solution (optical image) ([2]; 90 mM): uniform and clear solutions; appearance of aqueous solution (optical image) ([2]; 120 mM): opaque suspension
NC(=O)CC[C@H](NC(=O)[C@H](CCC(N)=O)NC(=O)[C@H](CCC(N)=O)NC(=O)[C@@H](N)CCC(N)=O)C(=O)O [QQQQ] (H-QQQQ-OH) | sheet | suspension | 120000 | 0 | – | appearance of aqueous solution (optical image) ([2]; 30 mM): clear solution; appearance of aqueous solution (optical image) ([2]; 60 mM): solution transparency decreased; appearance of aqueous solution (optical image) ([2]; 90 mM): solution transparency decreased; appearance of aqueous solution (optical image) ([2]; 120 mM): solution transparency decreased
CC[C@H](C)[C@H](NC(=O)[C@@H](NC(=O)[C@@H](N)Cc1c[nH]c2ccccc12)[C@@H](C)CC)C(=O)N[C@@H](Cc1ccccc1)C(=O)O [WIIF] (H-WIIF-OH) | – | – | 30000 | – | – | Morphology ([1]; line of the table gives 30 mM): fibre; State [3, 5]: gel; GELATION ([3]; peptide concentration 30 mM): 1
NCCCC[C@H](NC(=O)[C@@H](N)Cc1c[nH]c2ccccc12)C(=O)N[C@@H](Cc1ccccc1)C(=O)N[C@@H](Cc1ccccc1)C(=O)O [WKFF] (H-WKFF-OH) | – | – | 60000 | – | hydrogels | morphology by TEM (in words) [1]: entangled nanofibers; State [3, 6]: gel; GELATION ([3]; peptide concentration 60 mM): 1
CC(C)C[C@H](NC(=O)[C@@H](N)Cc1c[nH]c2ccccc12)C(=O)N[C@H](C(=O)N[C@@H](Cc1c[nH]c2ccccc12)C(=O)O)C(C)C [WLVW] (H-WLVW-OH) | – | – | 90000 | – | – | Morphology ([1]; line of the table gives 90 mM): fibre; State ([3]; 90 mM peptide in ultrapure water, pH 6.5-8.5 (1 N NaOH), no gel at lower concentrations): gel; GELATION ([3]; peptide concentration 90 mM): 1
N[C@@H](Cc1c[nH]c2ccccc12)C(=O)N1CCC[C@H]1C(=O)N[C@@H](Cc1ccc(O)cc1)C(=O)N[C@@H](Cc1ccc(O)cc1)C(=O)O [WPYY] (H-WPYY-OH) | sphere | precipitate | 120000 | 0 | cannot | –
CC[C@H](C)[C@H](NC(=O)[C@@H](NC(=O)[C@@H](N)Cc1c[nH]c2ccccc12)[C@@H](C)O)C(=O)N[C@@H](Cc1ccccc1)C(=O)O [WTIF] (H-WTIF-OH) | – | – | 30000 | – | hydrogels | Morphology ([1]; line of the table gives 30 mM): fibre; morphology by TEM (in words) [1]: entangled nanofibers; State [3, 5]: gel; GELATION ([3]; peptide concentration 30 mM): 1
CC[C@H](C)[C@H](NC(=O)[C@H](Cc1ccccc1)NC(=O)[C@@H](NC(=O)[C@@H](N)Cc1c[nH]c2ccccc12)C(C)C)C(=O)O [WVFI] (H-WVFI-OH) | aggregates | suspension | 120000 | 0 | – | –
CC(C)[C@H](NC(=O)[C@@H](N)Cc1c[nH]c2ccccc12)C(=O)N[C@@H](Cc1ccccc1)C(=O)N[C@@H](Cc1ccc(O)cc1)C(=O)O [WVFY] (H-WVFY-OH) | – | – | 30000 | – | hydrogels | Morphology ([1]; line of the table gives 30 mM): sheet; morphology by TEM (in words) [1]: interlaced nanosheets; State [3, 5]: gel; GELATION ([3]; peptide concentration 30 mM): 1
CC[C@H](C)[C@H](NC(=O)[C@@H](NC(=O)[C@@H](NC(=O)[C@@H](N)Cc1c[nH]c2ccccc12)C(C)C)[C@@H](C)CC)C(=O)O [WVII] (H-WVII-OH) | – | – | 60000 | – | can form hydrogel | Morphology ([1]; line of the table gives 60 mM): fibre; State [3, 6]: gel; GELATION ([3]; peptide concentration 60 mM): 1
N[C@@H](Cc1c[nH]c2ccccc12)C(=O)N[C@@H](Cc1c[nH]c2ccccc12)C(=O)N[C@@H](CS)C(=O)N1CCC[C@H]1C(=O)O [WWCP] (H-WWCP-OH) | aggregates | precipitate | 120000 | 0 | cannot | –
CSCC[C@H](NC(=O)[C@H](Cc1c[nH]c2ccccc12)NC(=O)[C@@H](N)Cc1c[nH]c2ccccc12)C(=O)N[C@@H](Cc1ccccc1)C(=O)O [WWMF] (H-WWMF-OH) | rod | gel | 120000 | 1 | – | –
N[C@@H](Cc1c[nH]c2ccccc12)C(=O)N[C@@H](Cc1c[nH]c2ccccc12)C(=O)N[C@@H](Cc1c[nH]c2ccccc12)C(=O)N[C@@H](Cc1c[nH]c2ccccc12)C(=O)O [WWWW] (H-WWWW-OH) | sphere | suspension | 120000 | 0 | – | –
N[C@@H](Cc1c[nH]c2ccccc12)C(=O)N[C@@H](Cc1ccc(O)cc1)C(=O)N[C@@H](Cc1ccccc1)C(=O)N[C@@H](Cc1ccccc1)C(=O)O [WYFF] (H-WYFF-OH) | – | – | 30000 | – | – | Morphology ([1]; line of the table gives 30 mM): fibre; State [3, 5]: gel; GELATION ([3]; peptide concentration 30 mM): 1
C[C@H](NC(=O)[C@@H](N)Cc1ccc(O)cc1)C(=O)N[C@@H](Cc1c[nH]c2ccccc12)C(=O)N[C@@H](Cc1ccccc1)C(=O)O [YAWF] (H-YAWF-OH) | – | – | 60000 | – | can form hydrogels | Morphology ([1]; line of the table gives 60 mM): fibre; morphology by TEM (in words) [1]: nanofibrous network; increase of RBD-specific IgG2b response compared with the commercial aluminum adjuvant group (C57BL/6 mice; C57BL/6 mice): around 9.7 fold; production of RBD-specific IgG1 (in words) (C57BL/6 mice; C57BL/6 mice, similar to the aluminum group): significantly enhanced; RBD-specific IgG2c titers (in words) (C57BL/6 mice; C57BL/6 mice, surpassing aluminum group or control group): high IgG2c titers; enhancement of the generation of IgG compared with the RBD group (C57BL/6 mice; […], C57BL/6 mice): 41.6 fold; endpoint titre of RBD-specific IgG in serum (C57BL/6 mice; mean of n = 6 mice, s.c. immunization day 0, 7, 14 with 15 μg RBD alone, with 12.5 μL aluminum adjuvant or 60 mM YAWF hydrogel, […]): 58615.2; State [3, 6]: gel; GELATION ([3]; peptide concentration 60 mM): 1
C[C@H](NC(=O)[C@@H](N)Cc1ccc(O)cc1)C(=O)N[C@@H](Cc1ccc(O)cc1)C(=O)N[C@@H](Cc1ccc(O)cc1)C(=O)O [YAYY] (H-YAYY-OH) | aggregates | sol | 120000 | 0 | – | –
CC[C@H](C)[C@H](NC(=O)[C@H](Cc1ccc(O)cc1)NC(=O)[C@@H]1CCCN1C(=O)[C@@H](N)Cc1ccc(O)cc1)C(=O)O [YPYI] (H-YPYI-OH) | aggregates | sol | 120000 | 0 | – | –
CC(C)[C@H](NC(=O)[C@@H](N)Cc1ccc(O)cc1)C(=O)N[C@@H](Cc1ccccc1)C(=O)N[C@@H](C)C(=O)O [YVFA] (H-YVFA-OH) | sphere | gel | 120000 | 1 | – | –
N[C@@H](Cc1ccc(O)cc1)C(=O)N[C@@H](Cc1ccc(O)cc1)C(=O)N[C@@H](Cc1ccc(O)cc1)C(=O)N[C@@H](Cc1ccc(O)cc1)C(=O)O [YYYY] (H-YYYY-OH) | aggregates | sol | 120000 | 0 | – | –
CCCC [tetrapeptide] | sphere | suspension | 120000 | 0 | – | –
